The text below walks through data of ChEMBL document CHEMBL4270577, “Synthesis, anticancer activity and molecular modeling studies of 1,2,4-triazole derivatives as EGFR inhibitors” (Eur J Med Chem, 2018).

The structures appear in SMILES notation.

In one test the target is Tubulin (Homo sapiens) (UniProt P68371+Q9H4B7+P0DPH7+P68366+Q13509+Q71U36+P04350+Q3ZCM7+P07437+P68363+Q9BQE3+Q6PEY2+Q13885+Q9BVA1+Q9BUF5). Nature of the test: Inhibition of tubulin (unknown origin) polymerization assessed as polymerized tubulin level at 5 to 25 uM by fluorescence assay. The class given is protein-complex assay.
Another test concerns PANC-1. Briefly: Antiproliferative activity against human PANC1 cells after 48 hrs by propidium iodide staining-based fluorometric analysis. Conditions: PANC-1, 48 h. The class given is functional, cell-based.
In the next test the test system is Hs-578T. Nature of the test: Growth inhibition of human Hs 578T cells at 10 uM incubated for 48 hrs by sulforhodamine B assay relative to control. It is filed as functional. Conditions: read-out: GI. (The SRB assay estimates cell density from bound dye.)
The subject of the next test is MIA PaCa-2. Briefly: Antiproliferative activity against human MIAPaCa2 cells after 48 hrs by propidium iodide staining-based fluorometric analysis. It is filed as functional, cell-based. The following applies: MIA PaCa-2, 48 h.
A further test deals with A549. Nature of the test: Growth inhibition of human A549/ATCC cells at 10 uM incubated for 48 hrs by sulforhodamine B assay relative to control. It is filed as functional. Conditions: A549, 48 h, read-out: GI.
Another test relates to SK-MEL-2. Nature of the test: Growth inhibition of human SK-MEL-2 cells at 10 uM incubated for 48 hrs by sulforhodamine B assay relative to control. It is filed as functional. The following applies: SK-MEL-2, 48 h, read-out: GI.
The next test concerns NCI-H522. Nature of the test: Growth inhibition of human NCI-H522 cells at 10 uM incubated for 48 hrs by sulforhodamine B assay relative to control. The class given is functional. Conditions: NCI-H522, 48 h, read-out: GI.
The next test has as its system NCI-H23. Nature of the test: Growth inhibition of human NCI-H23 cells at 10 uM incubated for 48 hrs by sulforhodamine B assay relative to control. The following applies: NCI-H23, 48 h, read-out: GI. The class given is functional.
The test system of the next test is UACC-257. Nature of the test: Growth inhibition of human UACC257 cells at 10 uM incubated for 48 hrs by sulforhodamine B assay relative to control. The class given is functional. The following applies: UACC-257, 48 h, read-out: GI.
The subject of the next test is HL-60(TB). Nature of the test: Growth inhibition of human HL-60(TB) cells at 10 uM incubated for 48 hrs by sulforhodamine B assay relative to control. The class given is functional. The following applies: HL-60, 48 h, read-out: GI.
Another test has as its system T47D. Nature of the test: Growth inhibition of human T47D cells at 10 uM incubated for 48 hrs by sulforhodamine B assay relative to control. The class given is functional. Conditions: read-out: GI.
The subject of a further test is PC-3. Briefly: Growth inhibition of human PC3 cells at 10 uM incubated for 48 hrs by sulforhodamine B assay relative to control. The class given is functional. The following applies: PC-3, 48 h, read-out: GI.
Another test has as its system RPMI-8226. Briefly: Growth inhibition of human RPMI8226 cells at 10 uM incubated for 48 hrs by sulforhodamine B assay relative to control. It is filed as functional. Conditions: RPMI-8226, 48 h, read-out: GI.
The next test relates to IGROV-1. Briefly: Growth inhibition of human IGROV1 cells at 10 uM incubated for 48 hrs by sulforhodamine B assay relative to control. It is filed as functional. Conditions: IGROV-1, 48 h, read-out: GI.
Another test relates to OVCAR-8. Briefly: Growth inhibition of human OVCAR8 cells at 10 uM incubated for 48 hrs by sulforhodamine B assay relative to control. It is filed as functional. The following applies: OVCAR-8, 48 h, read-out: GI.
Another test relates to SNB-19. Briefly: Growth inhibition of human SNB19 cells at 10 uM incubated for 48 hrs by sulforhodamine B assay relative to control. The class given is functional. Conditions: SNB-19, 48 h, read-out: GI.
The next test concerns SK-OV-3. Nature of the test: Growth inhibition of human SKOV3 cells at 10 uM incubated for 48 hrs by sulforhodamine B assay relative to control. The class given is functional. The following applies: SK-OV-3, 48 h, read-out: GI.
A further test deals with SF-268. Nature of the test: Growth inhibition of human SF268 cells at 10 uM incubated for 48 hrs by sulforhodamine B assay relative to control. The class given is functional. The following applies: SF-268, 48 h, read-out: GI.
A further test relates to SR. Nature of the test: Growth inhibition of human SR cells at 10 uM incubated for 48 hrs by sulforhodamine B assay relative to control. The class given is functional. Conditions: read-out: GI.
In test [1] the test system is HT-29. Nature of the test: Antiproliferative activity against human HT-29 cells after 48 hrs by propidium iodide staining-based fluorometric analysis. The class given is functional, cell-based. The following applies: HT-29, 48 h.
In a further test the test system is CCRF-CEM. Nature of the test: Growth inhibition of human CCRF-CEM cells at 10 uM incubated for 48 hrs by sulforhodamine B assay relative to control. It is filed as functional. The following applies: read-out: GI.
For a further test, the system named is MCF7. Briefly: Growth inhibition of human MCF7 cells at 10 uM incubated for 48 hrs by sulforhodamine B assay relative to control. The class given is functional. Conditions: MCF7, 48 h, read-out: GI.
In a further test the test system is NCI-H460. Briefly: Antiproliferative activity against human H460 cells after 48 hrs by propidium iodide staining-based fluorometric analysis. The following applies: NCI-H460, 48 h. The class given is functional, cell-based.
The subject of a further test is MDA-MB-231. Nature of the test: Growth inhibition of human MDA-MB-231/ATCC cells at 10 uM incubated for 48 hrs by sulforhodamine B assay relative to control. It is filed as functional. Conditions: MDA-MB-231, 48 h, read-out: GI.
The subject of another test is HOP-62. Briefly: Growth inhibition of human HOP62 cells at 10 uM incubated for 48 hrs by sulforhodamine B assay relative to control. The class given is functional. The following applies: HOP-62, 48 h, read-out: GI.
In the next test the test system is UACC-62. Briefly: Growth inhibition of human UACC62 cells at 10 uM incubated for 48 hrs by sulforhodamine B assay relative to control. The class given is functional. Conditions: UACC-62, 48 h, read-out: GI.
Another test deals with UO-31. Nature of the test: Growth inhibition of human UO31 cells at 10 uM incubated for 48 hrs by sulforhodamine B assay relative to control. It is filed as functional. The following applies: UO-31, 48 h, read-out: GI.
A further test deals with SNB-75. Nature of the test: Growth inhibition of human SNB75 cells at 10 uM incubated for 48 hrs by sulforhodamine B assay relative to control. It is filed as functional. Conditions: SNB-75, 48 h, read-out: GI.
The test system of the next test is U-251. Briefly: Growth inhibition of human U251 cells at 10 uM incubated for 48 hrs by sulforhodamine B assay relative to control. It is filed as functional. The following applies: U-251, 48 h, read-out: GI.
The next test relates to NCI-H322M. Nature of the test: Growth inhibition of human NCI-H322M cells at 10 uM incubated for 48 hrs by sulforhodamine B assay relative to control. The class given is functional. Conditions: read-out: GI.
Test [2] has as its system HT-29. Briefly: Growth inhibition of human HT-29 cells at 10 uM incubated for 48 hrs by sulforhodamine B assay relative to control. Conditions: HT-29, 48 h, read-out: GI. It is filed as functional.
The next test concerns NCI-H226. Nature of the test: Growth inhibition of human NCI-H226 cells at 10 uM incubated for 48 hrs by sulforhodamine B assay relative to control. The following applies: NCI-H226, 48 h, read-out: GI. The class given is functional.
The test system of another test is MOLT-4. Briefly: Growth inhibition of human MOLT4 cells at 10 uM incubated for 48 hrs by sulforhodamine B assay relative to control. The class given is functional. Conditions: MOLT-4, 48 h, read-out: GI.

One may read the IC50 as the concentration at which inhibition is half-maximal.

On to `CC(=O)O[C@@]12CO[C@@H]1C[C@H](O)[C@@]1(C)C(=O)[C@H](O)C3=C(C)[C@@H](OC(=O)[C@H](O)[C@@H](NC(=O)OC(C)(C)C)c4ccccc4)C[C@@](O)([C@@H](OC(=O)c4ccccc4)[C@H]21)C3(C)C`, for which the Activity at Tubulin (Homo sapiens) was determined as 4740 a.u.

Consider `C/C(=N\O)c1ccc(NC(=O)Cn2nc(-c3ccc(Cl)cc3)nc2N)cc1`, for which the IC50 was 6.6 µM in the test with PANC-1, 8.4 µM with MIA PaCa-2, 5.8 µM with HT-29 [1] and 7.1 µM in the test on NCI-H460. Moreover, the inhibition of growth at 10 µM came to 11.2% in the test on Hs-578T; 20.1% in the test with A549; 15.3% with SK-MEL-2; 31.5% in the test with NCI-H522; 7.43% in the test with NCI-H23; 27.8% with UACC-257. The inhibition of growth at 10 µM in the test with HL-60(TB) worked out at 5.94%; in the test on T47D, 13.5%; in the test with PC-3 it was 28.9%; with RPMI-8226 it was 6.42%; in the test on IGROV-1 it was 10.5%; in the test on OVCAR-8, 18%. In addition, the inhibition of growth at 10 µM in the test with SNB-19 turned out to be 10.7%; in the test with SK-OV-3, 27.4%; with SF-268, 10.5%; in the test with SR, 18.3%; in the test with CCRF-CEM, 14.7%; in the test on MCF7, 15.9%. Besides, the inhibition of growth at 10 µM was found to be 17.4% in the test with MDA-MB-231; 11.7% in the test with HOP-62; 8.96% in the test on UACC-62; 34% in the test on UO-31; 12% in the test with SNB-75; 9.67% with U-251. Moreover, the inhibition of growth at 10 µM with NCI-H322M amounted to 7.09%; in the test with HT-29 [2], 13.3%; in the test with NCI-H226, 17.8%; in the test on MOLT-4, 33%.
